Measurements published in patent US20230263822A1, “MODULATION OF FACTOR 11 EXPRESSION” (Ionis Pharmaceuticals, Inc., priority 2008, published 2023).

Experiment: Hematology assays in cynomolgus monkeys (Example 45)
Type: in vivo
Protocol: Groups, each consisting of two male and three female monkeys, were injected subcutaneously with ISIS 416838, ISIS 416850, ISIS 416858, ISIS 416864, or ISIS 417002 in escalating doses. Antisense oligonucleotide was administered to the monkeys at 5 mg/kg three times per a week for week 1; 5 mg/kg twice per week for weeks 2 and 3; 10 mg/kg three times per week for week 4; 10 mg/kg twice per week for weeks 5 and 6; 25 mg/kg three times per week for week 7; and 25 mg/kg twice per week for weeks 8, 9, 10, 11, and 12. One control group, consisting of two male and three female monkeys, was injected subcutaneously with PBS according to the same dosing regimen. An additional experimental group, consisting of two male and three female monkeys, was injected subcutaneously with ISIS 416850 in a chronic, lower dose regimen. Antisense oligonucleotide was administered to the monkeys at 5 mg/kg three times per week for week 1; 5 mg/kg twice per week for week 2 and 3; 10 mg/kg three times per week for week 4; and 10 mg/kg twice per week for weeks 5 to 12. Body weights were measured weekly. Blood samples were collected 14 days and 5 days before the start of treatment and subsequently once per week for Factor 11 protein activity analysis in plasma, fibrinogen measurement, PT and aPTT measurements, bleeding times, and measurement of various hematologic factors. On day 85, the monkeys were euthanized by exsanguination while under deep anesthesia, and organs harvested for further analysis.
The ISIS oligonucleotide, ISIS 416850, given with the chronic dose regimen is distinguished from the other oligonucleotides with an asterisk (*).

[1] = day 43, chronic dose regimen (*)
[2] = day 43, escalating dose regimen
[3] = day 50, chronic dose regimen (*)
[4] = day 50, escalating dose regimen
[5] = day 57, escalating dose regimen
[6] = day 64, escalating dose regimen
[7] = day 71, escalating dose regimen
[8] = day 78, escalating dose regimen
[9] = day 85, escalating dose regimen
[10] = day −5, chronic dose regimen (*)
[11] = day −5, escalating dose regimen
[12] = day −14, chronic dose regimen (*)
[13] = day −14, escalating dose regimen

ISIS 416850: MOE gapmer, nucleobases 1275 to 1318 of SEQ ID NO: 1 (Table 8) (antisense TGCACAGTTTCTGGCAGGCC; MOE gapmer, wing and gap sizes not given here)
monocytes [1]: 1.8%
neutrophils [1]: 61%
platelet count [1]: 391000 µL⁻¹
reticulocytes [1]: 1.0%
MCH [2]: 23 pg
MCHC [2]: 29 g/dL
MCV [2]: 79 fL
RBC count [2]: 5.2e+06 µL⁻¹
WBC count [2]: 9000 µL⁻¹
hematocrit [2]: 40%
hemoglobin [2]: 11.8 g/dL
basophils (day 50): 0.3%
eosinophils (day 50): 1.2%
lymphocytes (day 50): 49%
monocytes (day 50): 3.7%
neutrophils (day 50): 45%
platelet count (day 50): 487000 µL⁻¹
reticulocytes (day 50): 2.7%
MCH [3]: 23 pg
MCHC [3]: 29 g/dL
MCV [3]: 80 fL
RBC count [3]: 5.3e+06 µL⁻¹
WBC count [3]: 15000 µL⁻¹
basophils [3]: 0.2%
eosinophils [3]: 0.3%
hematocrit [3]: 42%
hemoglobin [3]: 11.9 g/dL
lymphocytes [3]: 35%
monocytes [3]: 1.8%
neutrophils [3]: 62%
platelet count [3]: 351000 µL⁻¹
reticulocytes [3]: 1.2%
MCH [4]: 23 pg
MCHC [4]: 28 g/dL
MCV [4]: 83 fL
RBC count [4]: 5.2e+06 µL⁻¹
WBC count [4]: 11000 µL⁻¹
hematocrit [4]: 42%
hemoglobin [4]: 11.8 g/dL
basophils (day 57): 0.4%
eosinophils (day 57): 1.0%
lymphocytes (day 57): 45%
monocytes (day 57): n.d.3.2%
neutrophils (day 57): 49%
platelet count (day 57): 528000 µL⁻¹
reticulocytes (day 57): 2.0%
MCH [5]: 23 pg
MCHC [5]: 29 g/dL
MCV [5]: 80 fL
RBC count [5]: 5.2e+06 µL⁻¹
WBC count [5]: 11000 µL⁻¹
hematocrit [5]: 42%
hemoglobin [5]: 12.1 g/dL
basophils (day 64): 0.4%
eosinophils (day 64): 1.3%
lymphocytes (day 64): 53%
monocytes (day 64): n.d.3.5%
neutrophils (day 64): 41%
platelet count (day 64): 496000 µL⁻¹
reticulocytes (day 64): 1.7%
MCHC [6]: 29 g/dL
MCV [6]: 79 fL
RBC count [6]: 5.4e+06 µL⁻¹
WBC count [6]: 11000 µL⁻¹
hematocrit [6]: 43%
hemoglobin [6]: 12.3 g/dL
basophils (day 71): 0.3%
eosinophils (day 71): 1.8%
lymphocytes (day 71): 61%
monocytes (day 71): n.d.4.7%
neutrophils (day 71): 27%
platelet count (day 71): 465000 µL⁻¹
reticulocytes (day 71): 1.8%
MCHC [7]: 28 g/dL
MCV [7]: 80 fL
RBC count [7]: 5.4e+06 µL⁻¹
WBC count [7]: 15000 µL⁻¹
hematocrit [7]: 43%
hemoglobin [7]: 12.3 g/dL
basophils (day 78): 0.3%
eosinophils (day 78): 1.0%
lymphocytes (day 78): 51%
monocytes (day 78): n.d.4.5%
neutrophils (day 78): 42%
platelet count (day 78): 449000 µL⁻¹
reticulocytes (day 78): 1.8%
MCHC [8]: 29 g/dL
MCV [8]: 79 fL
RBC count [8]: 5.3e+06 µL⁻¹
WBC count [8]: 12000 µL⁻¹
hematocrit [8]: 41%
hemoglobin [8]: 12.2 g/dL
basophils (day 85): 0.3%
eosinophils (day 85): 1.2%
lymphocytes (day 85): 34%
monocytes (day 85): n.d.3.5%
neutrophils (day 85): 60%
platelet count (day 85): 458000 µL⁻¹
reticulocytes (day 85): 2.3%
MCHC [9]: 30 g/dL
MCV [9]: 77 fL
RBC count [9]: 5.5e+06 µL⁻¹
WBC count [9]: 15000 µL⁻¹
hematocrit [9]: 42%
hemoglobin [9]: 12.7 g/dL
basophils (day −5): 0.2%
eosinophils (day −5): 1.6%
lymphocytes (day −5): 43%
monocytes (day −5): 2.8%
neutrophils (day −5): 52%
platelet count (day −5): 573000 µL⁻¹
reticulocytes (day −5): 1.2%
MCH [10]: 23 pg
MCHC [10]: 30 g/dL
MCV [10]: 78 fL
RBC count [10]: 5.5e+06 µL⁻¹
WBC count [10]: 15000 µL⁻¹
basophils [10]: 0.3%
eosinophils [10]: 0.7%
hematocrit [10]: 43%
hemoglobin [10]: 12.8 g/dL
lymphocytes [10]: 43%
monocytes [10]: 2.4%
neutrophils [10]: 53%
platelet count [10]: 434000 µL⁻¹
reticulocytes [10]: 0.8%
MCH [11]: 23 pg
MCHC [11]: 30 g/dL
MCV [11]: 77 fL
RBC count [11]: 5.5e+06 µL⁻¹
WBC count [11]: 13000 µL⁻¹
hematocrit [11]: 43%
hemoglobin [11]: 12.7 g/dL
basophils (day −14): 0.2%
eosinophils (day −14): 1.0%
lymphocytes (day −14): 47%
monocytes (day −14): 2.3%
neutrophils (day −14): 49%
platelet count (day −14): 528000 µL⁻¹
reticulocytes (day −14): 1.7%
MCH [12]: 24 pg
MCHC [12]: 29 g/dL
MCV [12]: 81 fL
RBC count [12]: 5.5e+06 µL⁻¹
WBC count [12]: 15000 µL⁻¹
basophils [12]: 0.2%
eosinophils [12]: 0.5%
hematocrit [12]: 44%
hemoglobin [12]: 12.8 g/dL
lymphocytes [12]: 47%
monocytes [12]: 2.9%
neutrophils [12]: 48%
platelet count [12]: 387000 µL⁻¹
reticulocytes [12]: 1.1%
MCH [13]: 23 pg
MCHC [13]: 30 g/dL
MCV [13]: 78 fL
RBC count [13]: 5.3e+06 µL⁻¹
WBC count [13]: 13000 µL⁻¹
hematocrit [13]: 41%
hemoglobin [13]: 12.4 g/dL
